The values below come from PMC9481570, “A small molecule antagonist of SMN disrupts the interaction between SMN and RNAP II” (Nature Communications, 2022).

Structures are written as SMILES. Several values for one entry are separate records, joined by “and”; a condition that tells them apart may be missing. Equal entries are not always repeated.

Common to all, as to assay: Affinity-purification and mass spectrometry (AP-MS) chemical proteomics, all proteins;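 on Difference: 200 µM free competitor with 20 µM biotin probe overnight in lysate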
Holding throughout (assay type): binding

Experiment [1] addresses T1, proteins displaced from immobilized biotin-Cmpd 1 pulldowns (U2OS cell lysate) (Homo sapiens, UniProt Q9UH17).
T1 construct: endogenous in cells; host or cells: U2OS
As to conditions: GN=APOBEC3B (Q9UH17).

Experiment [2] concerns the target T2, proteins displaced from immobilized biotin-Cmpd 1 pulldowns (U2OS cell lysate) (Homo sapiens, UniProt Q9BZG1).
T2 construct: endogenous in cells; host or cells: U2OS
As to conditions: GN=RAB34 (Q9BZG1).

Experiment [3] deals with T3, proteins displaced from immobilized biotin-Cmpd 1 pulldowns (U2OS cell lysate) (Homo sapiens, UniProt P06396).
T3 construct: endogenous in cells; host or cells: U2OS
T3 sequence (P06396 28-782): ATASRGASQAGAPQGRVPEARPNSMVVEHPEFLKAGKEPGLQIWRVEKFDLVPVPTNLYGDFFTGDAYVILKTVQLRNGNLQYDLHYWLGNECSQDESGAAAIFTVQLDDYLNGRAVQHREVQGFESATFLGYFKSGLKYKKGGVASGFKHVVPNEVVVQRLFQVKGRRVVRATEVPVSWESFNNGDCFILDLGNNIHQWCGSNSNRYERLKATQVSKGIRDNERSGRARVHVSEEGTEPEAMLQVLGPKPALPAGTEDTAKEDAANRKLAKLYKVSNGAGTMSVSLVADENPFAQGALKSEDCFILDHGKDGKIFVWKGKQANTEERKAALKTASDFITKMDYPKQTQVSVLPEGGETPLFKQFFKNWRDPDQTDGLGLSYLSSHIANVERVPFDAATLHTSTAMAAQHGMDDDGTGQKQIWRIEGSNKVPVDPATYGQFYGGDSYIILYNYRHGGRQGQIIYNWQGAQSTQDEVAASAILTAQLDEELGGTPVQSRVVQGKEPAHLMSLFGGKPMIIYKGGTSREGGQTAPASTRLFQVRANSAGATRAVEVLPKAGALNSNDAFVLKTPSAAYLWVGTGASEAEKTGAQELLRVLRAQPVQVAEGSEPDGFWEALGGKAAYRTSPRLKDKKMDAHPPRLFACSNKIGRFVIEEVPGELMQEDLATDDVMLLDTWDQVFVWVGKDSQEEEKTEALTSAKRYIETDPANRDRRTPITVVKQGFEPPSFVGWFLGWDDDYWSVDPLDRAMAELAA
The note with it: GN=GSN (P06396).

In experiment [4] the target is T4, proteins displaced from immobilized biotin-Cmpd 1 pulldowns (U2OS cell lysate) (Homo sapiens, UniProt Q6UB35).
T4 construct: endogenous in cells; host or cells: U2OS
T4 sequence (Q6UB35 32-978): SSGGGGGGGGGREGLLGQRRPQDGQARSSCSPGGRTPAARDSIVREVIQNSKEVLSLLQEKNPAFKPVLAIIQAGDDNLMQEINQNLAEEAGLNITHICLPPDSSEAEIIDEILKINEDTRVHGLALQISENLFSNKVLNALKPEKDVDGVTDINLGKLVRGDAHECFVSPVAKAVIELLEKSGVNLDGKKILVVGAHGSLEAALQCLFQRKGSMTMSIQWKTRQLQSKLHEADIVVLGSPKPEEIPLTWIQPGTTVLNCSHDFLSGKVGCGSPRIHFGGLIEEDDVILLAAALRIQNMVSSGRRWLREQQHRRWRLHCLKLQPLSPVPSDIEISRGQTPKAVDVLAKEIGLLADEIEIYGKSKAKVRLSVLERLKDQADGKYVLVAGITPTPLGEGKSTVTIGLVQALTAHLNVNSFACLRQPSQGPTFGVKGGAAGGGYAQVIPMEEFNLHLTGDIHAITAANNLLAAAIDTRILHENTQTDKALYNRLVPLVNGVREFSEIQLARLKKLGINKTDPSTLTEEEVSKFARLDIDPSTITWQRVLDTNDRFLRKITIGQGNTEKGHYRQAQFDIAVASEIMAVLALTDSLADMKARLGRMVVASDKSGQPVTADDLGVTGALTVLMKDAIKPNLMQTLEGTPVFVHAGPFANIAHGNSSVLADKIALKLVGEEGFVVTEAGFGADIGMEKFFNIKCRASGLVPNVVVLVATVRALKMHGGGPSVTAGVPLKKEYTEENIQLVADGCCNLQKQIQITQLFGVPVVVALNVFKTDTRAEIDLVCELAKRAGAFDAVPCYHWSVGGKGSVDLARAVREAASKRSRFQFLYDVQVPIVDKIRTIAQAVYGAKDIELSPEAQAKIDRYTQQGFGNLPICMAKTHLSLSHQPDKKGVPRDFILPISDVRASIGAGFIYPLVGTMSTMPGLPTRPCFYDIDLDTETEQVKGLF
As to conditions: GN=MTHFD1L (Q6UB35).

Experiment [5] concerns the target T5, proteins displaced from immobilized biotin-Cmpd 1 pulldowns (U2OS cell lysate) (Homo sapiens, UniProt Q13765).
T5 construct: endogenous in cells; host or cells: U2OS
As to conditions: GN=NACA (Q13765).

The target of experiment [6] is T6, proteins displaced from immobilized biotin-Cmpd 1 pulldowns (U2OS cell lysate) (Homo sapiens, UniProt Q9NUQ6).
T6 construct: endogenous in cells; host or cells: U2OS
T6 sequence (Q9NUQ6 whole entry): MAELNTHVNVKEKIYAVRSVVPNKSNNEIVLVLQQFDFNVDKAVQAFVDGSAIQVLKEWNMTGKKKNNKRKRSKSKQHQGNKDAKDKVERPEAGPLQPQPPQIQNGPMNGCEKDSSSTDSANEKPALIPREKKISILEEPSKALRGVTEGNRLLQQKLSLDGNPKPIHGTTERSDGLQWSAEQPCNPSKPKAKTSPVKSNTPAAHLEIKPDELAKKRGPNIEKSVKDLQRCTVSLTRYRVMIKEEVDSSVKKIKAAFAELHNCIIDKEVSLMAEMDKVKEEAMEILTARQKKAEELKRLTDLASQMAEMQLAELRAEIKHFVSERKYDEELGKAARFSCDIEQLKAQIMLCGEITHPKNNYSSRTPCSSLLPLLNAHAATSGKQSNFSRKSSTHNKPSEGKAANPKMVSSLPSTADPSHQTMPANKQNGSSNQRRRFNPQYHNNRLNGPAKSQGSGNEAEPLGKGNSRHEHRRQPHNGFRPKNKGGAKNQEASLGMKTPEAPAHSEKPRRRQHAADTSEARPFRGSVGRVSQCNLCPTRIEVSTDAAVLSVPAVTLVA
As to conditions: GN=SPATS2L (Q9NUQ6).

The target of experiment [7] is T7, proteins displaced from immobilized biotin-Cmpd 1 pulldowns (U2OS cell lysate) (Homo sapiens, UniProt Q9NZM5).
T7 construct: endogenous in cells; host or cells: U2OS
As to conditions: GN=NOP53 (Q9NZM5).

The target in experiment [8] is T8, proteins displaced from immobilized biotin-Cmpd 1 pulldowns (U2OS cell lysate) (Homo sapiens, UniProt Q13573).
T8 construct: endogenous in cells; host or cells: U2OS
T8 sequence (Q13573 whole entry): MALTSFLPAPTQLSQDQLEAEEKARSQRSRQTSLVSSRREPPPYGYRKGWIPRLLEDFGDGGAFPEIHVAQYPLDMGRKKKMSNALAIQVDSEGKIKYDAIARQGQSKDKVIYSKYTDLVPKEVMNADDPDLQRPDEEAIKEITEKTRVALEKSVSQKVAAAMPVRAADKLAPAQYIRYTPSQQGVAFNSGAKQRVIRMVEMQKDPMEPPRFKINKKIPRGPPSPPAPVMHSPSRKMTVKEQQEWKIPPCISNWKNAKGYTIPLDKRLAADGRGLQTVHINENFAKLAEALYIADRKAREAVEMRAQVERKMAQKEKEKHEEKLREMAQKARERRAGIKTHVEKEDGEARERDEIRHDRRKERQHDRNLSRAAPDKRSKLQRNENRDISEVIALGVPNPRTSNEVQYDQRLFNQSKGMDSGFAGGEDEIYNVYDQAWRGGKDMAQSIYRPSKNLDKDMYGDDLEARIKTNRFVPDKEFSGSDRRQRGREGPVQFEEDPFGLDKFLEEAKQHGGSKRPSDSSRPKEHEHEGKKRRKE
As to conditions: GN=SNW1 (Q13573).

Experiment [9] deals with T9, proteins displaced from immobilized biotin-Cmpd 1 pulldowns (U2OS cell lysate) (Homo sapiens, UniProt Q9H8H0).
T9 construct: endogenous in cells; host or cells: U2OS
T9 sequence (Q9H8H0 whole entry): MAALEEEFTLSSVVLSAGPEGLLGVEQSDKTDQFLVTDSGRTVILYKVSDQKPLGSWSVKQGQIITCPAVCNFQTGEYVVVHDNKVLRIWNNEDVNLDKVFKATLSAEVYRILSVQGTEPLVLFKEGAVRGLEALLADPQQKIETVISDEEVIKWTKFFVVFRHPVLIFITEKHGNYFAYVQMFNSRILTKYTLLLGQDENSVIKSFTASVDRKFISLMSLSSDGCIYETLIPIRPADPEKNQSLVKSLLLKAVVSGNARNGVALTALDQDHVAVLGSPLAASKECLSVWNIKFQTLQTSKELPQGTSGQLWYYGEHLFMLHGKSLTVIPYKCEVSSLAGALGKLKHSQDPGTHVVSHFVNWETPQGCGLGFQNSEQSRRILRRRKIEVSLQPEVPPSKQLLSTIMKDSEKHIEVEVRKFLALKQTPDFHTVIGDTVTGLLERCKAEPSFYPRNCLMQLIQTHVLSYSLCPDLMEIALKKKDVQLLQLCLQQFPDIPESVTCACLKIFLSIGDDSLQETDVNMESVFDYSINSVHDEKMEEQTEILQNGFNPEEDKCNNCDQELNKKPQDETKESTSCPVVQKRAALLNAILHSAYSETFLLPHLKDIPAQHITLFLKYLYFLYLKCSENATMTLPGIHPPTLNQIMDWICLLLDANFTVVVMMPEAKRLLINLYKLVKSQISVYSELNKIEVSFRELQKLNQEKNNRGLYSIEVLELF
The note with it: GN=NOL11 (Q9H8H0).

In experiment [10] the target is T10, proteins displaced from immobilized biotin-Cmpd 1 pulldowns (U2OS cell lysate) (Homo sapiens, UniProt Q96AE4).
T10 construct: endogenous in cells; host or cells: U2OS
T10 sequence (Q96AE4 whole entry): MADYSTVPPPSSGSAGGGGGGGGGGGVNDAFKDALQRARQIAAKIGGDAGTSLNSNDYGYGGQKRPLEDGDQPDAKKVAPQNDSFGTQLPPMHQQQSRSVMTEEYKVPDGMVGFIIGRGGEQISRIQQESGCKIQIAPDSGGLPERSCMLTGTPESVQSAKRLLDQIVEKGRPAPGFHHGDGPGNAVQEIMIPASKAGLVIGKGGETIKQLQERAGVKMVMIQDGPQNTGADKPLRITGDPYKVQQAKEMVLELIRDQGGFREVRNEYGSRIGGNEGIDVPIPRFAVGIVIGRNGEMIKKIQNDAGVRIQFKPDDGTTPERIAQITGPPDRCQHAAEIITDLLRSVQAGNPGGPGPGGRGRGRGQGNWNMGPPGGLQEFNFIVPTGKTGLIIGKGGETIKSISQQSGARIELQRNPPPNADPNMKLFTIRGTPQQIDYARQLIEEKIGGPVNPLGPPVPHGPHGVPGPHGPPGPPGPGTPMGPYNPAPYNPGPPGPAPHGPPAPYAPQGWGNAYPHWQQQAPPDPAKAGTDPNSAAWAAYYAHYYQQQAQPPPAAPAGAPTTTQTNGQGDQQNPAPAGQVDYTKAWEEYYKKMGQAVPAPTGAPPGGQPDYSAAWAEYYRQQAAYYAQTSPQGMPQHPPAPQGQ
The note with it: GN=FUBP1 (Q96AE4).

T1 sequence (Q9UH17 whole entry): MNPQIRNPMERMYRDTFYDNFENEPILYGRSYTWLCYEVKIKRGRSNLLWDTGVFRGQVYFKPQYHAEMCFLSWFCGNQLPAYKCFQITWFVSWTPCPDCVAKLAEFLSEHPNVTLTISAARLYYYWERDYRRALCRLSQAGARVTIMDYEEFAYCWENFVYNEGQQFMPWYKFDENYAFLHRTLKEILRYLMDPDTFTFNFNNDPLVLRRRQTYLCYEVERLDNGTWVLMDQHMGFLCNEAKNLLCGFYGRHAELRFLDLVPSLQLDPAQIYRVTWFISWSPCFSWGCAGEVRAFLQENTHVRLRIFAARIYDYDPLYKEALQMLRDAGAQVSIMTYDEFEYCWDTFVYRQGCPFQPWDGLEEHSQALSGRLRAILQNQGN
T2 sequence (Q9BZG1 whole entry): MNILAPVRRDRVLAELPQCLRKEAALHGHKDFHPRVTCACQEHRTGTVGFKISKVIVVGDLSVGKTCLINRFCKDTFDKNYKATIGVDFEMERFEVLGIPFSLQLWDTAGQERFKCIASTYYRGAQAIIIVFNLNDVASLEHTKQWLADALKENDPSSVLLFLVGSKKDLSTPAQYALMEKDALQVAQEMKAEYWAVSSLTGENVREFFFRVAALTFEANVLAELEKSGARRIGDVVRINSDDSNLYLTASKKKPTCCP

`Cn1c2c(c(=N)c3c1CCC3)CCC2` [Compound 1, 4-methyl-2,3,4,5,6,7-hexahydrodicyclopenta[b,e]pyridin-8(1H)-imine]: the Difference in [1] (Cmpd minus DMSO, -LOG(P-value) 0.938202) is -0.8112; in experiment [2] (Cmpd minus DMSO, -LOG(P-value) 1.66704), 2.667; in experiment [3] (Cmpd minus DMSO, -LOG(P-value) 0.71197) it was -1.503; in [4] (Cmpd minus DMSO, -LOG(P-value) 1.33022), 0.8728; in experiment [5] (Cmpd minus DMSO, -LOG(P-value) 0.904761) it was 3.386; in experiment [6] (Cmpd minus DMSO, -LOG(P-value) 0.875271), 3.1666. In addition, the Difference is 2.66 in experiment [7] (Cmpd minus DMSO, -LOG(P-value) 0.867991); 2.177 in experiment [8] (Cmpd minus DMSO, -LOG(P-value) 1.77748); -0.9892 in experiment [9] (Cmpd minus DMSO, -LOG(P-value) 1.02475); 1.187 in experiment [10] (Cmpd minus DMSO, -LOG(P-value) 0.798774). In addition, the “iBAQ Cmpd” value in experiment [1] (replicates 1-3) is 21.4277 and 21.5751 and 21.8529; in experiment [2] (replicates 1-3), 18.8001 and 17.2488 and 16.5904; in [3] (replicates 1-3) it was 18.7093 and 18.978 and 19.6978; in experiment [4] (replicates 1-3), 15.8133 and 15.8201 and 15.0604; in [5] (replicates 1-3) it was 21.59 and 20.9827 and 19.5819; in experiment [6] (replicates 1-3), 21.4367 and 18.8839 and 18.3449. In addition, the “iBAQ Cmpd” value in [7] (replicates 1-3) is 18.4766 and 17.8155 and 17.9258; in experiment [8] (replicates 1-3), 17.1233 and 17.0397 and 16.2301; in experiment [9] (replicates 1-3), 17.1431 and 16.1539 and 16.3373; in [10] (replicates 1-3) it was 19.58 and 17.8353 and 18.5748.
